Data as given in ChEMBL document CHEMBL1132119, “1-Arylnaphthalene lignan: a novel scaffold for type 5 phosphodiesterase inhibitor” (J Med Chem, 1999).
pEC50, pIC50: −log10 of the molar value.

Tests used:
[1] = biological target: cGMP-specific 3',5'-cyclic phosphodiesterase (Canis lupus familiaris, UniProt O77746); assay: Inhibitory activity against phosphodiesterase 5 (PDE V), isolated from lung
[2] = biological target: Phosphodiesterase 3 (Canis familiaris); assay: Inhibitory activity against phosphodiesterase 3 (PDE 3) isolated from cardiac ventricle
[3] = biological target: Phosphodiesterase 1 (Canis familiaris); assay: Inhibitory activity against phosphodiesterase 1 (PDE I), isolated from cardiac ventricle
[4] = biological target: Phosphodiesterase 4 (Canis familiaris); assay: Inhibition of canine lung Phosphodiesterase 4
Rattus norvegicus = species: Rattus norvegicus; assay: Relaxant effect on rat aortic rings.; assay type: functional, organism-based; conditions: Aorta
[5] = biological target: Phosphodiesterase 2 (Canis familiaris); assay: Inhibition of canine adrenal gland Phosphodiesterase 2

For COC(=O)c1c(C(=O)N2CCN(CCO)CC2)cc2cc(OC)c(OC)cc2c1-c1ccc2c(c1)OCO2, the pIC50 [1] was 4.48, the IC50 [2] was over 100 µM and the IC50 [3] was 55 µM.
With COC(=O)c1c(C(=O)N2CCN(CCO)CC2)cc2cc(OC)c(OC)cc2c1/C=C/c1cc(OC)c(OC)c(OC)c1 the pIC50 [1] was under 4.00.
Molecule COC(=O)c1c(C(=O)N2CCN(CCO)CC2)cc2cc(OC)c(OC)c(OC)c2c1-c1cc(Br)c(OC)c(OC)c1 has a pIC50 [1] of under 4.00, an IC50 [2] of over 100 µM and an IC50 [3] of over 100 µM.
In the case of COC(=O)c1c(C(N)=O)cc2cc(OC)c(OC)cc2c1-c1cc(OC)c(OC)c(OC)c1, the pIC50 [1] was under 4.00, the IC50 [2] was 0.32 µM and the IC50 [3] was 0.82 µM.
Work on COC(=O)c1c(C(=O)N2CCN(CCO)CC2)cc2cc(OC)c(OC)cc2c1-c1cc(Cl)cc(Cl)c1 yielded a pIC50 [1] of 4.27, an IC50 [2] of over 100 µM and an IC50 [3] of over 100 µM.
COC(=O)c1c(C(=O)N2CCN(CCO)CC2)cc2ccc(C)cc2c1-c1cc(Br)c(OC)c(OC)c1 showed a pIC50 [1] of 7.29, an IC50 [2] of over 100 µM and an IC50 [3] of 3.5 µM.
In the case of CCOC(=O)C1CCN(C(=O)c2cc3cc(OC)c(OC)cc3c(-c3cc(OC)c(OC)c(OC)c3)c2C(=O)OC)CC1, the pIC50 [1] was 5.70, the IC50 [2] was 60 µM and the IC50 [3] was 24 µM.
Molecule COC(=O)c1c(C(=O)N2CCN(CCO)CC2)cc2cc(OC)c(OC)cc2c1-c1cc(Br)c(OC)c(OC)c1 has a pIC50 [1] of 7.62, an IC50 [2] of over 100 µM and an IC50 [4] of over 100 µM. The pEC50 (Rattus norvegicus) was 6.34, the IC50 [3] was 11 µM and the pIC50 [5] was under 4.00.
Molecule COC(=O)c1c(C(=O)N2CCN(CCO)CC2)cc2cc(OC)c(OC)cc2c1-c1cc(OC)c(OC)cc1C has a pIC50 [1] of 4.28.
For COC(=O)c1c(CN2CCN(CCO)CC2)cc2cc(OC)c(OC)cc2c1-c1cc(OC)c(OC)c(OC)c1, the pIC50 [1] was 5.62, the IC50 [2] was over 100 µM and the IC50 [3] was 26 µM.
For COc1cc2cc3c(c(-c4cc(OC)c(OC)c(OC)c4)c2cc1OC)C(=O)N(C)C3=O, the pIC50 [1] was under 4.00, the IC50 [2] was over 100 µM and the IC50 [3] was over 100 µM.
In the case of CCOc1cc2cc(C(=O)N3CCN(CCO)CC3)c(C(=O)OC)c(-c3cc(Br)c(OC)c(OC)c3)c2cc1OC, the pIC50 [1] was 7.77 and the pEC50 (Rattus norvegicus) was 6.52.
COC(=O)c1c(C(=O)N2CCC(CO)CC2)cc2cc(OC)c(OC)cc2c1-c1cc(OC)c(OC)c(OC)c1 gave a pIC50 [1] of 6.49, an IC50 [2] of over 100 µM and an IC50 [3] of 45 µM.
For COC(=O)c1c(C(=O)N2CCCC2)cc2cc(OC)c(OC)cc2c1-c1cc(OC)c(OC)c(OC)c1, the pIC50 [1] was 6.11.
COC(=O)c1c(C(=O)N2CCCCC2)cc2cc(OC)c(OC)cc2c1-c1cc(OC)c(OC)c(OC)c1 gave a pIC50 [1] of 5.68.
With COC(=O)c1c(C(=O)N2CCC(=O)CC2)cc2cc(OC)c(OC)cc2c1-c1cc(OC)c(OC)c(OC)c1 the pIC50 [1] was 6.30, the IC50 [2] was over 100 µM and the IC50 [3] was 88 µM.
In the case of CNC(=O)c1cc2cc(OC)c(OC)cc2c(-c2cc(OC)c(OC)c(OC)c2)c1C(=O)OC, the pIC50 [1] was under 4.00, the IC50 [2] was 2.9 µM and the IC50 [3] was over 100 µM.
In the case of COC(=O)c1c(C(=O)N2CCN(CCO)CC2)cc2cc(OC)c(OC)cc2c1-c1cc(N)c(OC)c(OC)c1, the pIC50 [1] was 4.52, the IC50 [2] was over 100 µM and the IC50 [3] was over 100 µM.
COC(=O)c1c(C(=O)N2CCC(O)CC2)cc2cc(OC)c(OC)cc2c1-c1cc(OC)c(OC)c(OC)c1 gave a pIC50 [1] of 6.77, an IC50 [2] of over 100 µM and an IC50 [3] of 74 µM.
COC(=O)c1c(C(=O)N2CCN(CCO)CC2)cc2ccc(Cl)cc2c1-c1cc(Br)c(OC)c(OC)c1 showed a pIC50 [1] of 7.68, an IC50 [2] of over 100 µM and an IC50 [3] of 1.1 µM.
In the case of COC(=O)c1c(C(=O)N2CCN(CCO)CC2)cc2cc(OC)c(OC)cc2c1-c1cccc([N+](=O)[O-])c1, the pIC50 [1] was under 4.00, the IC50 [2] was over 100 µM and the IC50 [3] was over 100 µM.
Molecule COC(=O)c1c(C(=O)N2CCN(CCO)CC2)cc2cc(OC)c(OC)cc2c1-c1ccc(Cl)c(Cl)c1 has a pIC50 [1] of 4.28, an IC50 [2] of over 100 µM and a pIC50 [3] of 4.09.
COC(=O)c1c(C(=O)N(C)C)cc2cc(OC)c(OC)cc2c1-c1cc(OC)c(OC)c(OC)c1 gave a pIC50 [1] of 6.64, an IC50 [2] of 16 µM and an IC50 [3] of 35 µM.
COc1cc2cc(C(=O)N3CCN(CCO)CC3)c(CO)c(-c3cc(OC)c(OC)c(OC)c3)c2cc1OC gave a pIC50 [1] of under 4.00, an IC50 [2] of over 100 µM and an IC50 [3] of over 100 µM.
In the case of O=C(O)C1CCN(c2nc(NCc3ccc4c(c3)OCO4)c3cc(Cl)ccc3n2)CC1, the pIC50 [1] was 8.80 and the pEC50 (Rattus norvegicus) was 6.70.
COc1cc2cc(CO)c(CO)c(-c3cc(OC)c(OC)c(OC)c3)c2cc1OC showed a pIC50 [1] of 4.89, an IC50 [2] of 0.88 µM and an IC50 [3] of 18 µM.
For COC(=O)c1c(C(=O)N2CCN(CCO)CC2)cc2c(Cl)cccc2c1-c1cc(Br)c(OC)c(OC)c1, the pIC50 [1] was 8.21 and the pEC50 (Rattus norvegicus) was 7.00.
Work on COc1cc2cc(N)c(CO)c(-c3cc(OC)c(OC)c(OC)c3)c2cc1OC yielded a pIC50 [1] of 4.89, an IC50 [2] of 3.5 µM and an IC50 [3] of 2.1 µM.
In the case of COC(=O)c1c(C(=O)N2CCN(CCO)CC2)cc2cc(OC)c(OC)cc2c1-c1ccnc(Br)c1, the pIC50 [1] was under 4.00.
COC(=O)c1c(C(=O)N2CCN(C)CC2)cc2cc(OC)c(OC)cc2c1-c1cc(OC)c(OC)c(OC)c1 was tested, and the pIC50 [1] was 5.85, the IC50 [2] was over 100 µM and the IC50 [3] was 69 µM.
Molecule COC(=O)c1c(C(=O)N2CCOCC2)cc2cc(OC)c(OC)cc2c1-c1cc(OC)c(OC)c(OC)c1 has a pIC50 [1] of 6.41.
COc1cc2cc3c(c(-c4cc(OC)c(OC)c(OC)c4)c2cc1OC)COC3=O was tested, and the pIC50 [1] was 7.17, the IC50 [2] was 0.84 µM and the IC50 [3] was 0.43 µM.
COC(=O)c1c(C(=O)N2CCN(CCO)CC2)cc2ccccc2c1-c1cc(Br)c(OC)c(OC)c1 showed a pIC50 [1] of 7.60, an IC50 [2] of over 100 µM and an IC50 [4] of over 100 µM. For the same molecule, the pEC50 (Rattus norvegicus) was 6.10, the IC50 [3] was 3.4 µM and the pIC50 [5] was under 4.00.
COC(=O)c1c(C(=O)N2CCN(CCO)CC2)cc2cc(OC)c(OC)cc2c1-c1cc(OC)c(OC)c(OC)c1 showed a pIC50 [1] of 7.03, an IC50 [2] of over 100 µM and an IC50 [4] of over 100 µM. It also gave a pEC50 (Rattus norvegicus) of 5.70, an IC50 [3] of 41 µM and a pIC50 [5] of under 4.00.
Work on COC(=O)c1c(C(=O)N2CCN(CCO)CC2)cc2cc(OC)c(OC)cc2c1-c1cccs1 yielded a pIC50 [1] of under 4.00, an IC50 [2] of over 100 µM and an IC50 [3] of 77 µM.
With COC(=O)c1c(C(=O)N2CCN(CCO)CC2)cc2cc(OC)ccc2c1-c1cc(Br)c(OC)c(OC)c1 the pIC50 [1] was 7.92 and the pEC50 (Rattus norvegicus) was 6.25.
Work on COC(=O)c1cc2cc(OC)c(OC)cc2c(-c2cc(OC)c(OC)c(OC)c2)c1C(=O)OC yielded a pIC50 [1] of 5.68, an IC50 [2] of over 100 µM and an IC50 [3] of over 100 µM.
COC(=O)c1c(C(=O)N2CCN(CCO)CC2)cc2cc(OC)c(OC)cc2c1-c1cc(Cl)c(OC)c(OC)c1 was tested, and the pIC50 [1] was 7.31, the IC50 [2] was over 100 µM and the IC50 [4] was over 100 µM. The pEC50 (Rattus norvegicus) was 5.89, the IC50 [3] was 26 µM and the pIC50 [5] was under 4.00.
